ChEMBL document CHEMBL6114943, “Engineered Cyclotide Blocks Neuronal Excitotoxicity” (J Med Chem, 2025)
*1 amine or outer side, *2 acyl side, *3 side chain or, on linkers, in order; H or OH if unused. Where a SMILES comes first, the peptide text is derived from it. Bridges are numbered along the chain shown (N, C = ends). X2 = CC(C)C[C@H](C(=O)[C@H](CCCCNC(=O)c1ccc(-c2c3ccc(=[N+](C)C)cc-3oc3cc(N(C)C)ccc23)c(C(=O)[O-])c1)N[*:2])C(=O)[*:1]

Legend:
[1] = Stability in C57BL/6 mouse plasma assessed as drug degradation at 100 uM measured after 5 hrs in presence of alteplase by HPLC analysis; type: ADME, cell-free
[2] = Stability in C57BL/6 mouse plasma assessed as parent compound remaining at 100 uM measured after 24 hrs by HPLC analysis; type: ADME, cell-free; conditions: read-out: Stability
[3] = Stability in C57BL/6 mouse plasma assessed as parent compound remaining at 100 uM measured after 24 hrs in presence of alteplase by HPLC analysis; type: ADME, cell-free; conditions: read-out: Stability
[4] = Drug uptake in mouse Primary neuron at 500 nM incubated for 60 mins by inverted confocal microscopic analysis relative to control; type: ADME, cell-based; conditions: 1 h, 0.5 µM
[5] = Drug uptake in mouse Primary neuron at 100 nM incubated for 60 mins by inverted confocal microscopic analysis relative to control; type: ADME, cell-based; conditions: 1 h, 0.1 µM
[6] = Stability in C57BL/6 mouse plasma assessed as drug degradation by measuring parent compound remaining at 100 uM measured after 5 hrs by HPLC analysis; type: ADME, cell-free; conditions: read-out: Stability
[7] = Stability in C57BL/6 mouse plasma assessed as drug degradation by measuring parent compound remaining at 100 uM measured after 5 hrs in presence of alteplase by HPLC analysis; type: ADME, cell-free; conditions: read-out: Stability

Stability [1]: Unstable
remaining at 24 h, 100 µM [2]: 90%
remaining at 24 h, 100 µM [3]: 90%
Drug uptake [4]: 85.7%
Drug uptake [5]: 75.9%
remaining at 5 h, 100 µM [6]: 93%
remaining at 5 h, 100 µM [7]: 93%
SMILES: CC[C@H](C)[C@@H]1NC(=O)[C@@H]2CSSC[C@@H]3NC(=O)[C@H](C(C)C)NC(=O)[C@H](CC(=O)O)NC(=O)[C@H](CO)NC(=O)[C@H](CCC(=O)O)NC(=O)[C@H]([C@@H](C)CC)NC(=O)[C@H](CO)NC(=O)[C@H](CO)NC(=O)[C@H](CC(C)C)C(=O)[C@H](CCCCNC(=O)c4ccc(-c5c6ccc(=[N+](C)C)cc-6oc6cc(N(C)C)ccc56)c(C(=O)[O-])c4)NC(=O)[C@@H]4CSSC[C@H](NC(=O)[C@H](CC(=O)O)NC(=O)[C@H](CO)NC(=O)[C@H](CC(=O)O)NC(=O)[C@H](CCCNC(=N)N)NC(=O)[C@H](CCCNC(=N)N)NC(=O)[C@H](CSSC[C@H](NC1=O)C(=O)N[C@@H](CCCNC(=N)N)C(=O)NCC(=O)N[C@@H](CC(N)=O)C(=O)NCC(=O)N[C@@H](Cc1ccc(O)cc1)C(=O)N4)NC(=O)[C@H](CCCNC(=N)N)NC(=O)[C@H](CCCNC(=N)N)NC(=O)[C@H](CCCNC(=N)N)NC(=O)[C@H](CCCNC(=N)N)NC(=O)[C@H](CC(C)C)NC(=O)[C@H]([C@@H](C)CC)NC(=O)[C@H](CCCNC(=N)N)NC(=O)[C@@H]1CCCN1C3=O)C(=O)N1CCC[C@H]1C(=O)NCC(=O)N[C@@H](C)C(=O)N2 (SSIESDVCPRILRRRRCRRDSDCPGACICRGNGYC; disulfide 8-27, 17-29, 23-35; linker N-C via X2)
